Test systems include COLO 205; SK-MEL-2; HT-29; LOX IMVI; UACC-257; CCRF-CEM; HCC 2998; HCT-116; NCI-H226; SK-MEL-5; UO-31; HL-60; HOP-92; SK-MEL-28; SF-268; SW-620; A498; DU-145; MDA-MB-231.
Experiment in all cases: growth of human tumour cells (NCI), 48 h

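All cell lines were grown in 96-well plates and treated with compound for 48 hours. At the GI50, growth is halved.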 The source made the active and inactive calls. No stated cut-off is given here; in the data, active = GI50 up to about 1.1 µM and inactive = higher. Some results are limits rather than exact numbers.

With `COc1ccccc1NC(=O)C1=C(C)NC(C)=C(C(=O)Nc2ccccc2OC)C1c1ccccc1Cl`, the GI50 with COLO 205 was > 100 µM (inactive); with SK-MEL-2 it was 88.7 µM (inactive); in the assay on HT-29, 64.1 µM (inactive); in the assay on LOX IMVI it was > 100 µM (inactive); in the assay on UACC-257 it was > 100 µM (inactive); with CCRF-CEM, 38.4 µM (inactive). Further, the GI50 is > 100 µM (inactive) in the assay on HCC 2998; 52.8 µM (inactive) with HCT-116; > 100 µM (inactive) with NCI-H226; 47.8 µM (inactive) in the assay with SK-MEL-5; 28.5 µM (inactive) in the assay on UO-31; 53.6 µM (inactive) in the assay with HL-60. Besides, the GI50 with HOP-92, in the assay on SK-MEL-28, in the assay on SF-268, in the assay with SW-620 and with A498 was > 100 µM (inactive) throughout.

For `CCN(CC)CCCC(C)Nc1c2ccc(Cl)cc2nc2cc(Cl)ccc12` (centres undefined), the GI50 in the assay on COLO 205 is 1.94 µM (inactive); with SK-MEL-2, 15.7 µM (inactive); with HT-29, 2.47 µM (inactive); in the assay on LOX IMVI it was 2.64 µM (inactive); in the assay with UACC-257, 4.6 µM (inactive); in the assay with CCRF-CEM, 1.76 µM (inactive). For the same molecule, the GI50 with HCC 2998 is 2.16 µM (inactive); with HCT-116 it was 2.27 µM (inactive); in the assay on NCI-H226, 4.27 µM (inactive); in the assay on SK-MEL-5 it was 4.76 µM (inactive); with UO-31, 3.57 µM (inactive); in the assay on HL-60, 1.91 µM (inactive). Besides, the GI50 with HOP-92 is 2.77 µM (inactive); with SK-MEL-28, 5.6 µM (inactive); with SF-268, 4.9 µM (inactive); with SW-620 it was 3.24 µM (inactive); in the assay with A498, 8.67 µM (inactive).

With `CCOC(=O)C1=C(O)C(=O)c2ccccc2C1=O`, the GI50 in the assay with COLO 205 is > 100 µM (inactive); with SK-MEL-2 it was > 100 µM (inactive); in the assay on HT-29 it was > 100 µM (inactive); in the assay with LOX IMVI, 85.1 µM (inactive); with UACC-257, > 100 µM (inactive); in the assay on CCRF-CEM it was > 100 µM (inactive). The GI50 with HCC 2998 is > 100 µM (inactive); with HCT-116 it was > 100 µM (inactive); in the assay with NCI-H226, 48.3 µM (inactive); with SK-MEL-5, 46.5 µM (inactive); with UO-31 it was > 100 µM (inactive); in the assay with HL-60 it was > 100 µM (inactive). Also, the GI50 with HOP-92, with SK-MEL-28, with SF-268, with SW-620 and in the assay with A498 was > 100 µM (inactive) throughout.

`CCc1n[nH]c(=O)n1NC(=O)c1ccccc1C(=O)O`: the GI50 in the assay on COLO 205, in the assay on SK-MEL-2, in the assay with HT-29, in the assay on LOX IMVI, in the assay on UACC-257 and in the assay on DU-145 was > 100 µM (inactive) in each case. The GI50 in the assay on CCRF-CEM, in the assay on HCC 2998, in the assay with HCT-116, in the assay on SK-MEL-5, with UO-31 and in the assay on MDA-MB-231 was > 100 µM (inactive) in each case. For the same molecule, the GI50 in the assay on HOP-92, in the assay on SK-MEL-28, in the assay on SF-268 and in the assay on SW-620 was > 100 µM (inactive) in each case.

Consider `CC(C)(C)OC/C=C(/CO)[C@@H]1C=C[C@H](O)C1`, for which the GI50 in the assay on COLO 205, with SK-MEL-2, with HT-29, in the assay with UACC-257, in the assay on CCRF-CEM and in the assay on HCC 2998 was > 100 µM (inactive) in each case. Also, the GI50 with HCT-116, with NCI-H226, with UO-31, in the assay with MDA-MB-231, with SK-MEL-28 and in the assay with SF-268 was > 100 µM (inactive) throughout. In addition, the GI50 in the assay on SW-620 and with A498 was > 100 µM (inactive) in each case.

`O=C1C=CC(=O)C12CCc1ccccc12`: the GI50 in the assay on COLO 205 is 57.5 µM (inactive); with SK-MEL-2, > 100 µM (inactive); in the assay with HT-29 it was > 95.3 µM (inactive); in the assay on LOX IMVI, > 60.8 µM (inactive); with UACC-257 it was > 100 µM (inactive); in the assay with CCRF-CEM, 28.5 µM (inactive). In addition, the GI50 with HCC 2998 was > 100 µM (inactive); in the assay on HCT-116, > 100 µM (inactive); in the assay on NCI-H226, > 100 µM (inactive); in the assay on SK-MEL-5 it was > 100 µM (inactive); in the assay on UO-31 it was > 100 µM (inactive); in the assay on HL-60, 24.2 µM (inactive). The GI50 in the assay on HOP-92 is > 100 µM (inactive); in the assay on SK-MEL-28, > 100 µM (inactive); in the assay on SF-268, > 100 µM (inactive); with SW-620 it was 64.7 µM (inactive); in the assay on A498 it was > 100 µM (inactive).

Regarding `CC(=O)Nc1ccc(SC#N)c2c(NC(C)=O)cccc12`, the GI50 in the assay on COLO 205 was > 68.4 µM (inactive); in the assay on SK-MEL-2, > 100 µM (inactive); with HT-29, > 100 µM (inactive); in the assay on LOX IMVI, 56.4 µM (inactive); in the assay with UACC-257, > 100 µM (inactive); with CCRF-CEM, 30.3 µM (inactive). Moreover, the GI50 in the assay on HCC 2998 was > 100 µM (inactive); with HCT-116 it was > 86.3 µM (inactive); with NCI-H226, > 100 µM (inactive); in the assay on SK-MEL-5 it was > 100 µM (inactive); with UO-31, > 95.5 µM (inactive); in the assay on HL-60, 24.1 µM (inactive). Moreover, the GI50 is 50.7 µM (inactive) in the assay with HOP-92; 84.3 µM (inactive) in the assay on SK-MEL-28; 98.4 µM (inactive) in the assay with SF-268; 43.1 µM (inactive) in the assay with SW-620; > 100 µM (inactive) with A498.

For the molecule `CC(=O)OCCOCNC(=S)N/N=C/c1ccc([N+](=O)[O-])s1`, the GI50 with COLO 205 was 2.08 µM (inactive); in the assay with SK-MEL-2 it was 67.3 µM (inactive); in the assay on HT-29, 20.7 µM (inactive); in the assay on LOX IMVI it was 33.4 µM (inactive); with UACC-257, 23.8 µM (inactive); in the assay on CCRF-CEM, 4.72 µM (inactive). In addition, the GI50 with HCC 2998 is 43.2 µM (inactive); with HCT-116, 20.1 µM (inactive); in the assay on NCI-H226 it was > 100 µM (inactive); in the assay with SK-MEL-5, 25.7 µM (inactive); in the assay with UO-31 it was > 100 µM (inactive); in the assay with HL-60, 3.81 µM (inactive). The GI50 in the assay with HOP-92 is > 100 µM (inactive); with SK-MEL-28, > 100 µM (inactive); with SF-268, 61.9 µM (inactive); in the assay with SW-620, 30.5 µM (inactive); in the assay with A498, 86.7 µM (inactive).

Take `CCCCCCCCCCCCCCCC(=O)N[C@H]1CCc2cc(OC)c(OC)c(OC)c2-c2ccc(SC)c(=O)cc21`: the GI50 in the assay with COLO 205 was 0.187 µM (active); in the assay with SK-MEL-2, 1.46 µM (inactive); in the assay with HT-29, 0.253 µM (active); with LOX IMVI it was 2.45 µM (inactive); with UACC-257, 0.527 µM (active); in the assay with CCRF-CEM, 0.356 µM (active). Also, the GI50 with HCC 2998 was 0.297 µM (active); in the assay with HCT-116, 0.338 µM (active); with NCI-H226, 0.196 µM (active); in the assay on SK-MEL-5, 0.5 µM (active); with UO-31, 3.52 µM (inactive); with HL-60, 0.279 µM (active). Moreover, the GI50 is 0.891 µM (active) in the assay on HOP-92; 0.782 µM (active) in the assay on SK-MEL-28; 0.54 µM (active) with SF-268; 0.45 µM (active) in the assay with SW-620; 0.692 µM (active) in the assay on A498.

The values are drawn from ChEMBL document CHEMBL1201862, “PubChem BioAssay data set” (2004).
